# Laboratory results taken from PubChem BioAssay (NCI).
#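 Grown in 96-well plates, cells were treated for 48 hours with each compound at five concentrations. Insufficient inhibition: endpoint recorded as highest concentration tested. TGI: concentration producing complete growth inhibition.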
# Key:
# Test in all cases: NCI-60 cell line screen, 48 h
# A498 renal = test system: A498 renal
# CCRF-CEM leukemia = test system: CCRF-CEM leukemia
# UACC-257 melanoma = test system: UACC-257 melanoma
# HCC-2998 colon = test system: HCC-2998 colon
# NCI-H23 lung = test system: NCI-H23 lung
# SW-620 colon = test system: SW-620 colon
# SF-539 CNS = test system: SF-539 CNS
# OVCAR-3 ovarian = test system: OVCAR-3 ovarian
# SK-MEL-28 melanoma = test system: SK-MEL-28 melanoma
# LOX IMVI melanoma = test system: LOX IMVI melanoma
# DMS 114 small cell lung = test system: DMS 114 small cell lung
# OVCAR-8 ovarian = test system: OVCAR-8 ovarian
# UACC-62 melanoma = test system: UACC-62 melanoma
# SNB-19 CNS = test system: SNB-19 CNS
# IGROV1 ovarian = test system: IGROV1 ovarian
# TK-10 renal = test system: TK-10 renal
# HCT-15 colon = test system: HCT-15 colon
# HT29 colon = test system: HT29 colon
# XF 498 CNS = test system: XF 498 CNS
# SF-268 CNS = test system: SF-268 CNS
# UO-31 renal = test system: UO-31 renal
# SK-MEL-5 melanoma = test system: SK-MEL-5 melanoma
# RXF 393 renal = test system: RXF 393 renal
# HL-60(TB) leukemia = test system: HL-60(TB) leukemia
# SR leukemia = test system: SR leukemia
# SK-OV-3 ovarian = test system: SK-OV-3 ovarian
# NCI-H522 lung = test system: NCI-H522 lung
# ACHN renal = test system: ACHN renal
# M14 melanoma = test system: M14 melanoma
# DMS 273 small cell lung = test system: DMS 273 small cell lung
# SF-295 CNS = test system: SF-295 CNS
# SN12C renal = test system: SN12C renal
# MOLT-4 leukemia = test system: MOLT-4 leukemia
# SNB-75 CNS = test system: SNB-75 CNS
# KM20L2 colon = test system: KM20L2 colon
# MALME-3M melanoma = test system: MALME-3M melanoma
# DLD-1 colon = test system: DLD-1 colon
# EKVX NSCLC = test system: EKVX NSCLC
# M19-MEL melanoma = test system: M19-MEL melanoma
# 786-0 renal = test system: 786-0 renal
# HCT-116 colon = test system: HCT-116 colon
# K-562 leukemia = test system: K-562 leukemia
# SNB-78 CNS = test system: SNB-78 CNS
# SK-MEL-2 melanoma = test system: SK-MEL-2 melanoma
# RPMI-8226 leukemia = test system: RPMI-8226 leukemia
# NCI-H226 lung = test system: NCI-H226 lung
# HOP-62 NSCLC = test system: HOP-62 NSCLC
# HOP-18 NSCLC = test system: HOP-18 NSCLC
# A549 NSCLC = test system: A549 NSCLC
# OVCAR-5 ovarian = test system: OVCAR-5 ovarian
# KM12 colon = test system: KM12 colon
# COLO 205 colon = test system: COLO 205 colon
# U251 CNS = test system: U251 CNS
# LXFL 529 NSCLC = test system: LXFL 529 NSCLC
# HOP-92 NSCLC = test system: HOP-92 NSCLC
# HS 578T breast = test system: HS 578T breast
# MCF7 breast = test system: MCF7 breast
# NCI-H460 lung = test system: NCI-H460 lung
# PC-3 prostate = test system: PC-3 prostate
# CAKI-1 renal = test system: CAKI-1 renal
# T-47D breast = test system: T-47D breast
# DU-145 prostate = test system: DU-145 prostate
# MDA-N = test system: MDA-N
# MDA-MB-231 breast = test system: MDA-MB-231 breast
# MDA-MB-435 = test system: MDA-MB-435
# OVCAR-4 ovarian = test system: OVCAR-4 ovarian
# NCI/ADR-RES ovarian = test system: NCI/ADR-RES ovarian
# BT-549 breast = test system: BT-549 breast
compound,measurement,setting,value
Cc1c(C)c([N+](=O)[O-])c2c(c1N)C(=O)c1ccccc1C2=O,TGI,A498 renal,> 100 µM
same,TGI,CCRF-CEM leukemia,> 100 µM
same,TGI,UACC-257 melanoma,> 100 µM
same,TGI,HCC-2998 colon,> 100 µM
same,TGI,NCI-H23 lung,> 100 µM
same,TGI,SW-620 colon,> 100 µM
same,TGI,SF-539 CNS,> 100 µM
same,TGI,OVCAR-3 ovarian,> 100 µM
same,TGI,SK-MEL-28 melanoma,> 100 µM
same,TGI,LOX IMVI melanoma,> 100 µM
same,TGI,DMS 114 small cell lung,> 100 µM
same,TGI,OVCAR-8 ovarian,> 100 µM
same,TGI,UACC-62 melanoma,> 100 µM
same,TGI,SNB-19 CNS,> 100 µM
same,TGI,IGROV1 ovarian,> 100 µM
same,TGI,TK-10 renal,> 100 µM
same,TGI,HCT-15 colon,> 100 µM
same,TGI,HT29 colon,> 100 µM
same,TGI,XF 498 CNS,> 100 µM
same,TGI,SF-268 CNS,> 100 µM
same,TGI,UO-31 renal,> 100 µM
same,TGI,SK-MEL-5 melanoma,> 100 µM
same,TGI,RXF 393 renal,> 100 µM
same,TGI,HL-60(TB) leukemia,> 100 µM
same,TGI,SR leukemia,> 100 µM
same,TGI,SK-OV-3 ovarian,> 100 µM
same,TGI,NCI-H522 lung,> 100 µM
same,TGI,ACHN renal,> 100 µM
same,TGI,M14 melanoma,> 100 µM
same,TGI,DMS 273 small cell lung,> 100 µM
same,TGI,SF-295 CNS,> 100 µM
same,TGI,SN12C renal,> 100 µM
same,TGI,MOLT-4 leukemia,> 100 µM
same,TGI,SNB-75 CNS,> 100 µM
same,TGI,KM20L2 colon,> 100 µM
same,TGI,MALME-3M melanoma,> 100 µM
same,TGI,DLD-1 colon,> 100 µM
same,TGI,EKVX NSCLC,> 100 µM
same,TGI,M19-MEL melanoma,> 100 µM
same,TGI,786-0 renal,> 100 µM
same,TGI,HCT-116 colon,> 100 µM
same,TGI,K-562 leukemia,> 100 µM
same,TGI,SNB-78 CNS,> 100 µM
same,TGI,SK-MEL-2 melanoma,> 100 µM
same,TGI,RPMI-8226 leukemia,> 100 µM
same,TGI,NCI-H226 lung,> 100 µM
same,TGI,HOP-62 NSCLC,> 100 µM
same,TGI,HOP-18 NSCLC,> 100 µM
same,TGI,A549 NSCLC,> 100 µM
same,TGI,OVCAR-5 ovarian,> 100 µM
same,TGI,KM12 colon,> 100 µM
same,TGI,COLO 205 colon,> 100 µM
same,TGI,U251 CNS,> 100 µM
same,TGI,LXFL 529 NSCLC,> 100 µM
same,TGI,HOP-92 NSCLC,> 100 µM
N#C/C(=C\c1ccc2[nH]ccc2c1)C(=O)NCCCCNC(=O)/C(C#N)=C/c1ccc2[nH]ccc2c1,TGI,A498 renal,> 31.6 µM
same,TGI,CCRF-CEM leukemia,> 31.6 µM
same,TGI,UACC-257 melanoma,> 31.6 µM
same,TGI,HCC-2998 colon,> 31.6 µM
same,TGI,NCI-H23 lung,> 31.6 µM
same,TGI,SW-620 colon,> 31.6 µM
same,TGI,HS 578T breast,> 10 µM
same,TGI,SF-539 CNS,> 31.6 µM
same,TGI,OVCAR-3 ovarian,> 31.6 µM
same,TGI,SK-MEL-28 melanoma,> 31.6 µM
same,TGI,LOX IMVI melanoma,> 31.6 µM
same,TGI,DMS 114 small cell lung,> 100 µM
same,TGI,OVCAR-8 ovarian,> 31.6 µM
same,TGI,UACC-62 melanoma,> 31.6 µM
same,TGI,SNB-19 CNS,> 31.6 µM
same,TGI,IGROV1 ovarian,> 31.6 µM
same,TGI,TK-10 renal,> 31.6 µM
same,TGI,MCF7 breast,> 10 µM
same,TGI,NCI-H460 lung,> 31.6 µM
same,TGI,HCT-15 colon,> 31.6 µM
same,TGI,PC-3 prostate,> 10 µM
same,TGI,HT29 colon,> 31.6 µM
same,TGI,CAKI-1 renal,> 31.6 µM
same,TGI,XF 498 CNS,> 100 µM
same,TGI,SF-268 CNS,> 31.6 µM
same,TGI,T-47D breast,> 10 µM
same,TGI,UO-31 renal,> 31.6 µM
same,TGI,SK-MEL-5 melanoma,> 31.6 µM
same,TGI,RXF 393 renal,> 10 µM
same,TGI,HL-60(TB) leukemia,> 31.6 µM
same,TGI,SR leukemia,> 31.6 µM
same,TGI,SK-OV-3 ovarian,> 31.6 µM
same,TGI,NCI-H522 lung,> 31.6 µM
same,TGI,ACHN renal,> 31.6 µM
same,TGI,M14 melanoma,> 31.6 µM
same,TGI,DMS 273 small cell lung,> 100 µM
same,TGI,SF-295 CNS,> 31.6 µM
same,TGI,SN12C renal,> 31.6 µM
same,TGI,MOLT-4 leukemia,> 31.6 µM
same,TGI,DU-145 prostate,> 10 µM
same,TGI,SNB-75 CNS,> 31.6 µM
same,TGI,KM20L2 colon,> 100 µM
same,TGI,MALME-3M melanoma,> 31.6 µM
same,TGI,DLD-1 colon,> 100 µM
same,TGI,MDA-N,> 10 µM
same,TGI,MDA-MB-231 breast,> 10 µM
same,TGI,MDA-MB-435,> 10 µM
same,TGI,EKVX NSCLC,> 31.6 µM
same,TGI,M19-MEL melanoma,> 100 µM
same,TGI,786-0 renal,> 31.6 µM
same,TGI,HCT-116 colon,> 31.6 µM
same,TGI,K-562 leukemia,> 31.6 µM
same,TGI,SNB-78 CNS,> 100 µM
same,TGI,SK-MEL-2 melanoma,> 31.6 µM
same,TGI,OVCAR-4 ovarian,> 31.6 µM
same,TGI,RPMI-8226 leukemia,> 10 µM
same,TGI,NCI-H226 lung,> 31.6 µM
same,TGI,HOP-62 NSCLC,> 31.6 µM
same,TGI,A549 NSCLC,> 100 µM
same,TGI,OVCAR-5 ovarian,> 31.6 µM
same,TGI,NCI/ADR-RES ovarian,> 10 µM
same,TGI,KM12 colon,> 31.6 µM
same,TGI,COLO 205 colon,> 31.6 µM
same,TGI,BT-549 breast,> 10 µM
same,TGI,U251 CNS,> 31.6 µM
same,TGI,LXFL 529 NSCLC,> 100 µM
same,TGI,HOP-92 NSCLC,> 31.6 µM
Cc1cc(=O)[nH]c(NNC(C#N)c2cccc([N+](=O)[O-])c2)n1 (stereo not given),TGI,CCRF-CEM leukemia,> 100 µM
same,TGI,UACC-257 melanoma,> 100 µM
same,TGI,NCI-H23 lung,> 100 µM
same,TGI,SW-620 colon,> 100 µM
same,TGI,SF-539 CNS,> 100 µM
same,TGI,OVCAR-3 ovarian,> 100 µM
same,TGI,SK-MEL-28 melanoma,> 100 µM
same,TGI,LOX IMVI melanoma,> 100 µM
same,TGI,DMS 114 small cell lung,> 100 µM
same,TGI,OVCAR-8 ovarian,> 100 µM
same,TGI,UACC-62 melanoma,> 100 µM
same,TGI,IGROV1 ovarian,> 100 µM
same,TGI,TK-10 renal,> 100 µM
same,TGI,NCI-H460 lung,> 100 µM
same,TGI,HCT-15 colon,> 100 µM
same,TGI,HT29 colon,> 100 µM
same,TGI,CAKI-1 renal,> 100 µM
same,TGI,SF-268 CNS,> 100 µM
same,TGI,UO-31 renal,> 100 µM
same,TGI,SK-MEL-5 melanoma,> 100 µM
same,TGI,RXF 393 renal,> 100 µM
same,TGI,HL-60(TB) leukemia,> 100 µM
same,TGI,SR leukemia,> 100 µM
same,TGI,SK-OV-3 ovarian,> 100 µM
same,TGI,NCI-H522 lung,> 100 µM
same,TGI,ACHN renal,> 100 µM
same,TGI,M14 melanoma,> 100 µM
same,TGI,DMS 273 small cell lung,> 100 µM
same,TGI,SF-295 CNS,> 100 µM
same,TGI,SN12C renal,> 100 µM
same,TGI,MOLT-4 leukemia,> 100 µM
same,TGI,SNB-75 CNS,> 100 µM
same,TGI,KM20L2 colon,> 100 µM
same,TGI,MALME-3M melanoma,> 100 µM
same,TGI,DLD-1 colon,> 100 µM
same,TGI,M19-MEL melanoma,> 100 µM
same,TGI,786-0 renal,> 100 µM
same,TGI,HCT-116 colon,> 100 µM
same,TGI,K-562 leukemia,> 100 µM
same,TGI,SNB-78 CNS,> 100 µM
same,TGI,SK-MEL-2 melanoma,> 100 µM
same,TGI,OVCAR-4 ovarian,> 100 µM
same,TGI,RPMI-8226 leukemia,> 100 µM
same,TGI,NCI-H226 lung,> 100 µM
same,TGI,HOP-62 NSCLC,> 100 µM
same,TGI,HOP-18 NSCLC,> 100 µM
same,TGI,A549 NSCLC,> 100 µM
same,TGI,OVCAR-5 ovarian,> 100 µM
same,TGI,KM12 colon,> 100 µM
same,TGI,COLO 205 colon,> 100 µM
same,TGI,U251 CNS,> 100 µM
same,TGI,LXFL 529 NSCLC,> 100 µM
same,TGI,HOP-92 NSCLC,> 100 µM
